Data: patent US11708318B2, “Polymorphic forms of RAD1901-2HCL” (Radius Pharmaceuticals, Inc., priority 2017, dated 2023)
“Also recorded” adds a separate entry of the source. Read-outs that look alike come from different tables or passages of the source.

Legend:
Assay type in all cases: physicochemical
[1] = Storage at elevated temperature/humidity, analysed by XRPD
Experimental: Samples 1 and 2 were characterized by XRPD at various conditions. XRPD patterns were collected for the samples at ambient condition as the samples were provided; at variable temperature (VT-XRPD); at variable humidity (VH-XRPD); after the samples were exposed to 40° C./75% RH for 1 week and 25° C./97% RH for 1 week, respectively; and after a GVS measurement wherein the samples were exposed to 0-90% RH. Samples 1 and 2 were also characterized by ^1H NMR, TGA, DSC, KF, IC, GVS (exposed to 0-90% RH), PLM, SEM, and HPLC (Table 5).

[2] = Variable humidity XRPD (VH-XRPD); conditions: ~95% RH, 24 hr
Experimental: Samples run under non-ambient conditions were prepared by gently packing into a cavity, cut into a silicon wafer to obtain a flat surface and mounted onto a humidity stage with an Ansyco controller and humidity sensor positioned directly next to the sample holder. The data were collected at 298.15 K with water temperature of 35.0° C., in an angular range of 3 to 31° 2θ, with a step size of 0.025° 2θ, a collection time of 2.0 sec/step, and a collection time at each % RH was 41 min 28 sec. X-Ray Powder Diffraction (XRPD) patterns were collected at variable humidity values from 0 to 95% RH, based upon the humidity behavior of each compound observed during GVS experiments (described herein). For each Variable Humidity X-Ray Powder Diffraction (VH-XRPD) experiment performed, the % RH values selected are provided alongside the relevant experimental result. Full tables of detailing the % RH value at each collection point and the associated delay time at each value are provided in Tables 10-12. To fully characterize the polymorphic behavior of Samples 1 and 2 at variable humidity, and to collect reference XRPD patterns for the ‘pure’ anhydrous Form 1 and Form 2 material, and ‘pure’ hydrated Form 3 material, Variable Humidity (VH) XRPD experiments were conducted on Samples 1 and 2. Initially, VH-XRPD experiments were conducted using Sample 1, and XRPD diffractograms were collected at selected humidity values, in line with those collected during GVS experiments (see FIGS. 6E-6F). XRPD diffractograms were collected initially at ambient RH, then collected over 24 hours at ˜95% RH and finally collected during desorption steps to 0% RH and over 10 hours at 0% RH (see FIG. 4C). […]

[3] = Solubility assessment of Sample 1 (majorly Form 1) in 24 solvent systems; conditions: organic solvent or mixture
Experimental: Solubility assessment was carried out on the Sample 1 of RAD1901-2HCl (majorly Form 1 shown by XRPD) in 24 solvent systems in HPLC vials (sample IDs: A1 to A24). RAD1901-2HCl (25 mg) was treated with increasing volumes of solvent until the material fully dissolved or until a maximum of 60 vol had been used (Table 13).
After each addition of solvent, the system was stirred for 5 to 10 minutes at 25° C., then shaken at 50° C. for 5 to 10 minutes, and observations made. Samples were allowed to stand at room temperature for 5 min before the addition of a new aliquot of solvent. After the assessment was completed, the suspensions obtained were matured (maturation) and the clear solutions were cooled (cooling) and slowly evaporated (evaporation) as described below. All solids recovered from maturation, cooling and evaporation experiments were analyzed by high resolution XRPD.

- XRPD after storage at 25° C./97% RH for 1 week ([1]; 25° C./97% RH, 1 week): Form 3
- Solid form on prolonged exposure to high RH (>90%) ([1]; high RH (>90%), e.g. for 7 days): converted to the hydrate Form 3
- solubility ([3]; 1,2-dimethoxyethane, 50 °C, thermodynamic from solid, 1,2-dimethoxyethane, sample ID A16, read-out: Solubility assessment 10 vol.): < 100 mg/mL
- solubility ([3]; 1,2-dimethoxyethane, 50 °C, thermodynamic from solid, 1,2-dimethoxyethane, sample ID A16, read-out: Solubility assessment 20 vol.): < 50 mg/mL
- solubility ([3]; 1,2-dimethoxyethane, 50 °C, thermodynamic from solid, 1,2-dimethoxyethane, sample ID A16, read-out: Solubility assessment 40 vol.): < 25 mg/mL
- solubility ([3]; 1,2-dimethoxyethane, 50 °C, thermodynamic from solid, 1,2-dimethoxyethane, sample ID A16, read-out: Solubility assessment 60 vol.): < 16.7 mg/mL
- solubility ([3]; 1,4-dioxane, 50 °C, thermodynamic from solid, 1,4-Dioxane, sample ID A14, read-out: Solubility assessment 10 vol.): < 100 mg/mL
- solubility ([3]; 1,4-dioxane, 50 °C, thermodynamic from solid, 1,4-Dioxane, sample ID A14, read-out: Solubility assessment 20 vol.): < 50 mg/mL
- solubility ([3]; 1,4-dioxane, 50 °C, thermodynamic from solid, 1,4-Dioxane, sample ID A14, read-out: Solubility assessment 40 vol.): < 25 mg/mL
- solubility ([3]; 1,4-dioxane, 50 °C, thermodynamic from solid, 1,4-Dioxane, sample ID A14, read-out: Solubility assessment 60 vol.): < 16.7 mg/mL
- solubility ([3]; 1-propanol, 50 °C, thermodynamic from solid, 1-propanol, sample ID A8, read-out: Solubility assessment 10 vol.): < 100 mg/mL
- solubility ([3]; 1-propanol, 50 °C, thermodynamic from solid, 1-propanol, sample ID A8, read-out: Solubility assessment 20 vol.): < 50 mg/mL
- solubility ([3]; 1-propanol, 50 °C, thermodynamic from solid, 1-propanol, sample ID A8, read-out: Solubility assessment 40 vol.): < 25 mg/mL
- solubility ([3]; 1-propanol, 50 °C, thermodynamic from solid, 1-propanol, sample ID A8, read-out: Solubility assessment 60 vol.): < 16.7 mg/mL
- solubility ([3]; 2-propanol, 50 °C, thermodynamic from solid, 2-propanol, sample ID A6, read-out: Solubility assessment 10 vol.): < 100 mg/mL
- solubility ([3]; 2-propanol, 50 °C, thermodynamic from solid, 2-propanol, sample ID A6, read-out: Solubility assessment 20 vol.): < 50 mg/mL
- solubility ([3]; 2-propanol, 50 °C, thermodynamic from solid, 2-propanol, sample ID A6, read-out: Solubility assessment 40 vol.): < 25 mg/mL
- solubility ([3]; 2-propanol, 50 °C, thermodynamic from solid, 2-propanol, sample ID A6, read-out: Solubility assessment 60 vol.): < 16.7 mg/mL
- solubility ([3]; 10% water/EtOH, 50 °C, thermodynamic from solid, 10% water/EtOH, sample ID A22, read-out: Solubility assessment 10 vol.): 50 to 100 mg/mL
- solubility ([3]; 10% water/EtOH, 50 °C, thermodynamic from solid, 10% water/EtOH, sample ID A22, read-out: Solubility assessment 20 vol.): 50 to 100 mg/mL
- solubility ([3]; 10% water/IPA, 50 °C, thermodynamic from solid, 10% water/IPA, sample ID A23, read-out: Solubility assessment 10 vol.): < 100 mg/mL
- solubility ([3]; 10% water/IPA, 50 °C, thermodynamic from solid, 10% water/IPA, sample ID A23, read-out: Solubility assessment 20 vol.): < 50 mg/mL
- solubility ([3]; 10% water/IPA, 50 °C, thermodynamic from solid, 10% water/IPA, sample ID A23, read-out: Solubility assessment 40 vol.): 16.7 to 25 mg/mL
- solubility ([3]; 10% water/IPA, 50 °C, thermodynamic from solid, 10% water/IPA, sample ID A23, read-out: Solubility assessment 60 vol.): 16.7 to 25 mg/mL
- solubility ([3]; 10% water/THF, 50 °C, thermodynamic from solid, 10% water/THF, sample ID A24, read-out: Solubility assessment 10 vol.): < 100 mg/mL
- solubility ([3]; 10% water/THF, 50 °C, thermodynamic from solid, 10% water/THF, sample ID A24, read-out: Solubility assessment 20 vol.): < 50 mg/mL
- solubility ([3]; 10% water/THF, 50 °C, thermodynamic from solid, 10% water/THF, sample ID A24, read-out: Solubility assessment 40 vol.): 16.7 to 25 mg/mL
- solubility ([3]; 10% water/THF, 50 °C, thermodynamic from solid, 10% water/THF, sample ID A24, read-out: Solubility assessment 60 vol.): 16.7 to 25 mg/mL
- solubility ([3]; MEK, 50 °C, thermodynamic from solid, MEK, sample ID A7, read-out: Solubility assessment 10 vol.): < 100 mg/mL
- solubility ([3]; MEK, 50 °C, thermodynamic from solid, MEK, sample ID A7, read-out: Solubility assessment 20 vol.): < 50 mg/mL
- solubility ([3]; MEK, 50 °C, thermodynamic from solid, MEK, sample ID A7, read-out: Solubility assessment 40 vol.): < 25 mg/mL
- solubility ([3]; MEK, thermodynamic from solid, MEK, sample ID A7, read-out: Solubility assessment 60 vol.): < 16.7 mg/mL
- solubility ([3]; MIBK, 50 °C, thermodynamic from solid, MIBK, sample ID A5, read-out: Solubility assessment 10 vol.): < 100 mg/mL
- solubility ([3]; MIBK, 50 °C, thermodynamic from solid, MIBK, sample ID A5, read-out: Solubility assessment 20 vol.): < 50 mg/mL
- solubility ([3]; MIBK, 50 °C, thermodynamic from solid, MIBK, sample ID A5, read-out: Solubility assessment 40 vol.): < 25 mg/mL
- solubility ([3]; MIBK, thermodynamic from solid, MIBK, sample ID A5, read-out: Solubility assessment 60 vol.): < 16.7 mg/mL
- solubility ([3]; TBME, 50 °C, thermodynamic from solid, TBME, sample ID A13, read-out: Solubility assessment 10 vol.): < 100 mg/mL
- solubility ([3]; TBME, 50 °C, thermodynamic from solid, TBME, sample ID A13, read-out: Solubility assessment 20 vol.): < 50 mg/mL
- solubility ([3]; TBME, 50 °C, thermodynamic from solid, TBME, sample ID A13, read-out: Solubility assessment 40 vol.): < 25 mg/mL
- solubility ([3]; TBME, thermodynamic from solid, TBME, sample ID A13, read-out: Solubility assessment 60 vol.): < 16.7 mg/mL
- solubility ([3]; acetone, 50 °C, thermodynamic from solid, Acetone, sample ID A9, read-out: Solubility assessment 10 vol.): < 100 mg/mL
- solubility ([3]; acetone, 50 °C, thermodynamic from solid, Acetone, sample ID A9, read-out: Solubility assessment 20 vol.): < 50 mg/mL
- solubility ([3]; acetone, 50 °C, thermodynamic from solid, Acetone, sample ID A9, read-out: Solubility assessment 40 vol.): < 25 mg/mL
- solubility ([3]; acetone, 50 °C, thermodynamic from solid, Acetone, sample ID A9, read-out: Solubility assessment 60 vol.): < 16.7 mg/mL
Compound: CCNCCc1ccc(CN(CC)c2cc(OC)ccc2[C@@H]2CCc3cc(O)ccc3C2)cc1.Cl.Cl [Sample 1]
- VH-XRPD at ~95% RH over 24 hr [2]: slow conversion towards the hydrated state; also recorded: Form 3 over 24
